Experimental data as given in patent publication US20250353841A1 (BIOGEN MA INC., priority 2022, published 2025).

These molecules were tested on mutant Huntington (HTT) protein (assay: HTT Mutant HTRF iPSC assay (mHTT protein lowering)). Conditions: human iPSC derived from a HTT patient with a poly-Q49 mutation.
Format: cell-based

| Compound | IC50 [nM] |
| --- | --- |
| Cc1nc2c(C)cc(-c3cc(F)c4nn(C5CCN(C)CC5)cc4c3)nn2n1 [Compound 359, 6-(7-fluoro-2-(1-methylpiperidin-4-yl)-2H-indazol-5-yl)-2,8-dimethyl-[1,2,4]triazolo[1,5-b]pyridazine] | < 100 |
| Cc1cn2nc(-c3cn4cc(C5CC6CCC(C5)N6)cc(F)c4n3)cc(C)c2n1 (centres unmarked) [Compound 130] | 1000 to 9000 |
| Cc1cn2nc(-c3cc(F)c4nc(C5CCN(CC6CCC6)CC5)nn4c3)cc(C)c2n1 [Compound 444, 2-(1-(cyclobutylmethyl)piperidin-4-yl)-6-(2,8-dimethylimidazo[1,2-b]pyridazin-6-yl)-8-fluoro-[1,2,4]triazolo[1,5-a]pyridine] | 100 to 1000 |
| Cc1cn2nc(-c3cc(F)c4nc(NC(=O)C5(C)CN(C6CC6)C5)cn4c3)cc(C)c2n1 [Compound 282, 1-cyclopropyl-N-(6-(2,8-dimethylimidazo[1,2-b]pyridazin-6-yl)-8-fluoroimidazo[1,2-a]pyridin-2-yl)-3-methylazetidine-3-carboxamide] | < 100 |
| Cc1cn2cc(-c3cc(F)c4nc(C5CCNCC5)cn4c3)cc(Cl)c2n1 [Compound 32, 8-chloro-8′-fluoro-2-methyl-2′-(piperidin-4-yl)-6,6′-biimidazo[1,2-a]pyridine] | 100 to 1000 |
| COc1cc(-c2cc(F)c3nc(N4CCC5(CCN(C)CC5)C4)oc3c2)nn2nc(C)nc12 [Compound 505, 4-fluoro-6-(8-methoxy-2-methyl-[1,2,4]triazolo[1,5-b]pyridazin-6-yl)-2-(8-methyl-2,8-diazaspiro[4.5]decan-2-yl)benzo[d]oxazole] | < 100 |
| Cc1cn2cc(-c3cc(F)c4nc(CC5CCNCC5)cn4c3)cc(F)c2n1 [Compound 236, 8,8′-difluoro-2-methyl-2′-(piperidin-4-ylmethyl)-6,6′-biimidazo[1,2-a]pyridine] | 100 to 1000 |
| Cc1cn2nc(-c3cc(F)c4nn(C5CCC6(CCNC6)C5)nc4c3)cc(C)c2n1 (centres unmarked) [Compound 396, 6-(2,8-dimethylimidazo[1,2-b]pyridazin-6-yl)-4-fluoro-2-(2-azaspiro[4.4]nonan-7-yl)-2H-benzo[d][1,2,3]triazole] | 100 to 1000 |
| Cc1cc(-c2cc(F)c3nc(C4CCNCC4)oc3c2)cc2cn(C)nc12 [Compound 157, 6-(2,7-dimethyl-2H-indazol-5-yl)-4-fluoro-2-(piperidin-4-yl)benzo[d]oxazole] | 100 to 1000 |
| Cc1cn2nc(-c3cc(F)c4nc([C@H]5[C@@H]6CN(CC(F)F)C[C@@H]65)cn4c3)cc(C)c2n1 [Compound 217, 6-(2-((1R,5S,6r)-3-(2,2-difluoroethyl)-3-azabicyclo[3.1.0]hexan-6-yl)-8-fluoroimidazo[1,2-a]pyridin-6-yl)-2,8-dimethylimidazo[1,2-b]pyridazine] | 100 to 1000 |
| Cn1cc2cc(-c3cc(F)c4nc(CC5CNC5)cn4c3)ccc2n1 [Compound 20, 5-(2-(azetidin-3-ylmethyl)-8-fluoroimidazo[1,2-a]pyridin-6-yl)-2-methyl-2H-indazole] | 1000 to 9000 |
| Cc1cn2nc(-c3cc(F)c4nn(C5CCNCC5)cc4c3)cc(C(F)F)c2n1 [Compound 350, 8-(difluoromethyl)-6-[7-fluoro-2-(4-piperidyl)indazol-5-yl]-2-methyl-imidazo[1,2-b]pyridazine] | < 100 |
| Cc1cc(-c2cc(F)c3nc(NC(=O)C4CN(C(C)C)C4)cn3c2)nc2cn(C)nc12 [Compound 292, N-(6-(2,7-dimethyl-2H-pyrazolo[4,3-b]pyridin-5-yl)-8-fluoroimidazo[1,2-a]pyridin-2-yl)-1-isopropylazetidine-3-carboxamide] | < 100 |
| Cc1cn2nc(-c3cc(F)c4nc([C@H]5[C@@H]6CNC[C@@H]65)oc4c3)cc(C)c2n1 [Compound 455, 2-((1R,5S,6r)-3-azabicyclo[3.1.0]hexan-6-yl)-6-(2,8-dimethylimidazo[1,2-b]pyridazin-6-yl)-4-fluorobenzo[d]oxazole] | 100 to 1000 |
| Fc1ccc2nc(-c3cc(F)c4nc(C5CCNCC5)cn4c3)cn2c1 [Compound 122, 6,8′-difluoro-2′-(piperidin-4-yl)-2,6′-biimidazo[1,2-a]pyridine] | 1000 to 9000 |
| CN1CCC2(c3cn4cc(-c5cc(F)c6nn(C)cc6c5)cc(F)c4n3)CC1C2 [Compound 76, 5-(8-fluoro-6-(7-fluoro-2-methyl-2H-indazol-5-yl)imidazo[1,2-a]pyridin-2-yl)-2-methyl-2-azabicyclo[3.1.1]heptane] | 1000 to 9000 |
| Cc1cn2nc(-c3cc(F)c4nn(C5CCNC(C)(C)C5)nc4c3)cc(C)c2n1 (racemic) [Compound 394, 6-(2,8-dimethylimidazo[1,2-b]pyridazin-6-yl)-2-(2,2-dimethylpiperidin-4-yl)-4-fluoro-2H-benzo[d][1,2,3]triazole] | 100 to 1000 |
| Cc1cn2nc(-c3cn4cc(C5CCNCC5)cc(F)c4n3)cc(C)c2n1 [Compound 131, 6-(8-fluoro-6-(piperidin-4-yl)imidazo[1,2-a]pyridin-2-yl)-2,8-dimethylimidazo[1,2-b]pyridazine] | 100 to 1000 |
| Cc1cn2nc(-c3cn4cc(C5CCN(C)CC5)cc(F)c4n3)cc(C)c2n1 [Compound 133, 6-[8-fluoro-6-(1-methyl-4-piperidyl)imidazo[1,2-a]pyridin-2-yl]-2,8-dimethyl-imidazo[1,2-b]pyridazine] | 1000 to 9000 |

| Compound | IC50 [nM] |
| --- | --- |
| Cc1cn2nc(-c3cc(F)c4nc(NC(=O)C5CC6(CNC6)C5)cn4c3)cc(C)c2n1 [Compound 276] | 100 to 1000 |
| COc1cc(-c2cc(C#N)c3nc(C)cn3c2)cc2cn(C3CCNCC3)nc12 [Compound 546, 6-(7-methoxy-2-(piperidin-4-yl)-2H-indazol-5-yl)-2-methylimidazo[1,2-a]pyridine-8-carbonitrile] | 1000 to 9000 |
| Cc1nc2c(F)cc(-c3cc(F)c4[nH]c(C5CCNCC5)nc4c3)cn2n1 [Compound 149, 8-fluoro-6-(7-fluoro-2-(piperidin-4-yl)-1H-benzo[d]imidazol-5-yl)-2-methyl-[1,2,4]triazolo[1,5-a]pyridine] | 1000 to 9000 |
| Cc1cn2nc(-c3cc(F)c4nc(C5CC6(CCN(C)CC6)C5)oc4c3)cc(C)c2n1 [Compound 458, 6-(2,8-dimethylimidazo[1,2-b]pyridazin-6-yl)-4-fluoro-2-(7-methyl-7-azaspiro[3.5]nonan-2-yl)benzo[d]oxazole] | 100 to 1000 |
| Cc1cn2nc(-c3cc(F)c4nn(C5CCN(C)C5)cc4c3)cc(C)c2n1 (centres unmarked) [Compound 366, 6-(7-fluoro-2-(1-methylpyrrolidin-3-yl)-2H-indazol-5-yl)-2,8-dimethylimidazo[1,2-b]pyridazine] | 1000 to 9000 |
| Cc1cn2nc(-c3cc(F)c4nn(C5CCN(C)CC5)nc4c3)cc(C)c2n1 [Compound 380, 6-(2,8-dimethylimidazo[1,2-b]pyridazin-6-yl)-4-fluoro-2-(1-methyl-4-piperidyl)benzotriazole] | 100 to 1000 |
| Cc1cn2nc(-c3cc(F)c4nc(C5CCN(CC(F)F)CC5)cn4c3)cc(C)c2n1 [Compound 174, 6-(2-(1-(2,2-difluoroethyl)piperidin-4-yl)-8-fluoroimidazo[1,2-a]pyridin-6-yl)-2,8-dimethylimidazo[1,2-b]pyridazine] | 100 to 1000 |
| COc1cc(-c2cc(F)c3nc(NC(=O)C4CN(C(C)C)C4)cn3c2)nn2nc(C)nc12 [Compound 296, N-(8-fluoro-6-(8-methoxy-2-methyl-[1,2,4]triazolo[1,5-b]pyridazin-6-yl)imidazo[1,2-a]pyridin-2-yl)-1-isopropylazetidine-3-carboxamide] | < 100 |
| Cc1cn2nc(-c3cc(F)c4nc(C56CNC(C5)C6)cn4c3)cc(C)c2n1 [Compound 159] | 100 to 1000 |
| Cc1cn2nc(-c3cc(F)c4nc(N5CCC(N(C)C)CC5)oc4c3)cc(C(F)(F)F)c2n1 [Compound 506, 1-(4-fluoro-6-(2-methyl-8-(trifluoromethyl)imidazo [1,2-b]pyridazin-6-yl)benzo[d]oxazol-2-yl)-N,N-dimethylpiperidin-4-amine] | < 100 |
| Cc1cn2cc(-c3cc(F)c4nn(C5CCNCC5)cc4c3)cc2c(C)n1 [Compound 369, 5-(1,3-dimethylpyrrolo[1,2-a]pyrazin-7-yl)-7-fluoro-2-(piperidin-4-yl)-2H-indazole] | < 100 |
| Cc1cn2nc(-c3cc(OC(F)F)c4nc(C5CCNCC5)cn4c3)cc(C)c2n1 [Compound 537, 6-[8-(difluoromethoxy)-2-(4-piperidyl)imidazo[1,2-a]pyridin-6-yl]-2,8-dimethyl-imidazo[1,2-b]pyridazine] | < 100 |
| Cc1cn2cc(-c3cc(F)c4nc(C5CCN(C)CC5)cn4c3)cc(C)c2n1 [Compound 9, 8-fluoro-2′,8′-dimethyl-2-(1-methylpiperidin-4-yl)-6,6′-biimidazo[1,2-a]pyridine] | 1000 to 9000 |
| Cc1cn2nc(-c3cc(F)c4nc([C@H]5[C@@H]6CN(C)C[C@@H]65)cn4c3)cc(C)c2n1 [Compound 185, 6-[8-fluoro-2-[(1S,5R)-3-methyl-3-azabicyclo[3.1.0]hexan-6-yl]imidazo[1,2-a]pyridin-6-yl]-2,8-dimethyl-imidazo[1,2-b]pyridazine] | < 100 |
| Cc1cc(-c2cc(F)c3nn(C4CCNCC4)cc3c2)nc2cn(C)nc12 [Compound 353, 5-(7-fluoro-2-(piperidin-4-yl)-2H-indazol-5-yl)-2,7-dimethyl-2H-pyrazolo[4,3-b]pyridine] | 100 to 1000 |
| Cn1cc2cc(-c3cc(F)c4nc([C@@H]5CNCCO5)cn4c3)cc(F)c2n1 (single isomer, unassigned) [Compound 71] | 100 to 1000 |
| Cc1cn2nc(-c3cc(F)c4nc(NC(=O)C5CCNCC5)cn4c3)cc(C)c2n1 [Compound 250, N-(6-(2,8-dimethylimidazo[1,2-b]pyridazin-6-yl)-8-fluoroimidazo[1,2-a]pyridin-2-yl)piperidine-4-carboxamide] | 100 to 1000 |
| Cc1cc(-c2cc(F)c3nc(C4CCNCC4)cn3c2)ccc1C#N [Compound 38, 4-(8-fluoro-2-(piperidin-4-yl)imidazo[1,2-a]pyridin-6-yl)-2-methylbenzonitrile] | 1000 to 9000 |
| Cc1cn2nc(-c3cc(F)c4nc(NC5CCN(C6CCC6)CC5)oc4c3)cc(C)c2n1 [Compound 478, N-(1-cyclobutylpiperidin-4-yl)-6-(2,8-dimethylimidazo[1,2-b]pyridazin-6-yl)-4-fluorobenzo[d]oxazol-2-amine] | < 100 |
